Assay [1] relates to human colon cancer cell SW620. As to the kind of experiment: MTT assay, growth of SW620 cells, compounds combined with CPT-11. The format is cell-based. To be noted: for IC50: Homo sapiens, SW-620, 120 h, combined with CPT-11 (205 nM medium), 5 days, MTT. An outline of the steps:
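SW620 cells in RPMI 1640/10% FBS were exposed to 8-point compound dilutions (top 10 or 1 μM, 1% DMSO final) plus CPT-11 (205 nM in added medium) for 5 days at 37 °C. Viability by MTT (0.5 mg/mL, 4 h) absorbance; IC50 from sigmoidal fit.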
(In general: Tetrazolium dyes change colour on reduction, which living cells bring about.)

The subject of assay [2] is human breast cancer cell MDA-MB-468. Briefly: MTT assay, growth of MDA-MB-468 cells. The format is cell-based. To be noted: for IC50: Homo sapiens, MDA-MB-468, 168 h, 7 days, MTT. As for the experimental part: Inhibitory Effects of N,N-dimethyl-3-(4-(1-(tetrahydro-2H-pyran-4-yl)-[1,2,4]triazolo[4,3-a]quinoxalin-8-yl)phenoxy)propan-1-amine and its Analogues on the Growth of Human Breast Cancer Cell MDA-MB-468 were Determined by MTT Assay
MDA-MB-468 cells were digested by trypsinase, centrifuged at 800 rpm for 5 minutes, the supernatant was discarded, resuspended with fresh medium (RPMI 1640 medium+10% FBS) and counted. The cells were seeded into 96-well cell culture plate with appropriate cell density and incubated overnight in a 37° C. 5% CO2 incubator. The stock solutions of the tested compound and the reference compound AZD0156 were serially diluted to 8 concentrations by DMSO at the ratios of 1:3 and 1:10, respectively: the first concentration was 100 μM or 1 μM, and the last concentration was negative control of DMSO (0 μM, the final concentration of DMSO was 1%). 5 μL of each concentration was added to 120 μL of medium (25 times diluted) and mixed by shaking. The overnight cells were taken and the culture medium was removed, 195 μL of fresh medium was added to each well, and 5 μL of diluted medium containing the corresponding concentration of the tested sample was added respectively, and the culture plate was then placed in the 5% CO2 cell culture incubator at 37° C. for 7 days (On the fourth day, the medium containing drugs was removed and fresh medium containing drugs was added for continuous cultivation). After removing the original solution, 100 μL of fresh serum-free DMEM medium containing MTT (0.5 mg/mL) was added to each well, the culture was continued. After 4 hours, the original solution was removed, 100 μL of DMSO was added into each well, the 96-well plates were shaken away from light for 10 minutes and placed in a multi-function reader to read the absorbance at the wavelength of 552/630/690 nm. GraphPad Prism 6.0 was used to analyze the data. The inhibitory activity of compounds on cell proliferation was plotted based on cell viability and compound concentration. The IC50 value was fitted by a sigmoidal dose response curve equation Y=100/(1+10^(Log C−Log IC50)), where C was the concentration of compound.
Table 4 summarizes the inhibitory effects of compounds on the growth of human breast cancer cell MDA-MB-468 (IC50).

Assay [3] has as its target ATM enzyme (human) (Homo sapiens, UniProt Q13315). Briefly: ATM kinase assay (HTRF, GST-cMyc-p53 substrate). The format is biochemical. To be noted: 0.5 h, read-out: Inh (%) of ATM kinase; for inhibition at 0.01 µM: C 0.01 μm (final concentration of compound); for inhibition at 0.1 µM: C 0.1 μm (final concentration of compound); for inhibition at 1 µM: C 1 μm (final concentration of compound). An outline of the steps: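 Reaction with GST-cMyc-p53 substrate started with Mg/ATP, run 30 minutes at room temperature, then stopped with EDTA. Phospho-p53 (Ser15) detected by HTRF with Eu-labelled anti-phospho antibody and d2 anti-GST, signal as 10000×(Em665/Em620). Duplicates; IC50 from a curve fit with slope factor.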

ATM enzyme (human), sequence (Q13315 whole entry): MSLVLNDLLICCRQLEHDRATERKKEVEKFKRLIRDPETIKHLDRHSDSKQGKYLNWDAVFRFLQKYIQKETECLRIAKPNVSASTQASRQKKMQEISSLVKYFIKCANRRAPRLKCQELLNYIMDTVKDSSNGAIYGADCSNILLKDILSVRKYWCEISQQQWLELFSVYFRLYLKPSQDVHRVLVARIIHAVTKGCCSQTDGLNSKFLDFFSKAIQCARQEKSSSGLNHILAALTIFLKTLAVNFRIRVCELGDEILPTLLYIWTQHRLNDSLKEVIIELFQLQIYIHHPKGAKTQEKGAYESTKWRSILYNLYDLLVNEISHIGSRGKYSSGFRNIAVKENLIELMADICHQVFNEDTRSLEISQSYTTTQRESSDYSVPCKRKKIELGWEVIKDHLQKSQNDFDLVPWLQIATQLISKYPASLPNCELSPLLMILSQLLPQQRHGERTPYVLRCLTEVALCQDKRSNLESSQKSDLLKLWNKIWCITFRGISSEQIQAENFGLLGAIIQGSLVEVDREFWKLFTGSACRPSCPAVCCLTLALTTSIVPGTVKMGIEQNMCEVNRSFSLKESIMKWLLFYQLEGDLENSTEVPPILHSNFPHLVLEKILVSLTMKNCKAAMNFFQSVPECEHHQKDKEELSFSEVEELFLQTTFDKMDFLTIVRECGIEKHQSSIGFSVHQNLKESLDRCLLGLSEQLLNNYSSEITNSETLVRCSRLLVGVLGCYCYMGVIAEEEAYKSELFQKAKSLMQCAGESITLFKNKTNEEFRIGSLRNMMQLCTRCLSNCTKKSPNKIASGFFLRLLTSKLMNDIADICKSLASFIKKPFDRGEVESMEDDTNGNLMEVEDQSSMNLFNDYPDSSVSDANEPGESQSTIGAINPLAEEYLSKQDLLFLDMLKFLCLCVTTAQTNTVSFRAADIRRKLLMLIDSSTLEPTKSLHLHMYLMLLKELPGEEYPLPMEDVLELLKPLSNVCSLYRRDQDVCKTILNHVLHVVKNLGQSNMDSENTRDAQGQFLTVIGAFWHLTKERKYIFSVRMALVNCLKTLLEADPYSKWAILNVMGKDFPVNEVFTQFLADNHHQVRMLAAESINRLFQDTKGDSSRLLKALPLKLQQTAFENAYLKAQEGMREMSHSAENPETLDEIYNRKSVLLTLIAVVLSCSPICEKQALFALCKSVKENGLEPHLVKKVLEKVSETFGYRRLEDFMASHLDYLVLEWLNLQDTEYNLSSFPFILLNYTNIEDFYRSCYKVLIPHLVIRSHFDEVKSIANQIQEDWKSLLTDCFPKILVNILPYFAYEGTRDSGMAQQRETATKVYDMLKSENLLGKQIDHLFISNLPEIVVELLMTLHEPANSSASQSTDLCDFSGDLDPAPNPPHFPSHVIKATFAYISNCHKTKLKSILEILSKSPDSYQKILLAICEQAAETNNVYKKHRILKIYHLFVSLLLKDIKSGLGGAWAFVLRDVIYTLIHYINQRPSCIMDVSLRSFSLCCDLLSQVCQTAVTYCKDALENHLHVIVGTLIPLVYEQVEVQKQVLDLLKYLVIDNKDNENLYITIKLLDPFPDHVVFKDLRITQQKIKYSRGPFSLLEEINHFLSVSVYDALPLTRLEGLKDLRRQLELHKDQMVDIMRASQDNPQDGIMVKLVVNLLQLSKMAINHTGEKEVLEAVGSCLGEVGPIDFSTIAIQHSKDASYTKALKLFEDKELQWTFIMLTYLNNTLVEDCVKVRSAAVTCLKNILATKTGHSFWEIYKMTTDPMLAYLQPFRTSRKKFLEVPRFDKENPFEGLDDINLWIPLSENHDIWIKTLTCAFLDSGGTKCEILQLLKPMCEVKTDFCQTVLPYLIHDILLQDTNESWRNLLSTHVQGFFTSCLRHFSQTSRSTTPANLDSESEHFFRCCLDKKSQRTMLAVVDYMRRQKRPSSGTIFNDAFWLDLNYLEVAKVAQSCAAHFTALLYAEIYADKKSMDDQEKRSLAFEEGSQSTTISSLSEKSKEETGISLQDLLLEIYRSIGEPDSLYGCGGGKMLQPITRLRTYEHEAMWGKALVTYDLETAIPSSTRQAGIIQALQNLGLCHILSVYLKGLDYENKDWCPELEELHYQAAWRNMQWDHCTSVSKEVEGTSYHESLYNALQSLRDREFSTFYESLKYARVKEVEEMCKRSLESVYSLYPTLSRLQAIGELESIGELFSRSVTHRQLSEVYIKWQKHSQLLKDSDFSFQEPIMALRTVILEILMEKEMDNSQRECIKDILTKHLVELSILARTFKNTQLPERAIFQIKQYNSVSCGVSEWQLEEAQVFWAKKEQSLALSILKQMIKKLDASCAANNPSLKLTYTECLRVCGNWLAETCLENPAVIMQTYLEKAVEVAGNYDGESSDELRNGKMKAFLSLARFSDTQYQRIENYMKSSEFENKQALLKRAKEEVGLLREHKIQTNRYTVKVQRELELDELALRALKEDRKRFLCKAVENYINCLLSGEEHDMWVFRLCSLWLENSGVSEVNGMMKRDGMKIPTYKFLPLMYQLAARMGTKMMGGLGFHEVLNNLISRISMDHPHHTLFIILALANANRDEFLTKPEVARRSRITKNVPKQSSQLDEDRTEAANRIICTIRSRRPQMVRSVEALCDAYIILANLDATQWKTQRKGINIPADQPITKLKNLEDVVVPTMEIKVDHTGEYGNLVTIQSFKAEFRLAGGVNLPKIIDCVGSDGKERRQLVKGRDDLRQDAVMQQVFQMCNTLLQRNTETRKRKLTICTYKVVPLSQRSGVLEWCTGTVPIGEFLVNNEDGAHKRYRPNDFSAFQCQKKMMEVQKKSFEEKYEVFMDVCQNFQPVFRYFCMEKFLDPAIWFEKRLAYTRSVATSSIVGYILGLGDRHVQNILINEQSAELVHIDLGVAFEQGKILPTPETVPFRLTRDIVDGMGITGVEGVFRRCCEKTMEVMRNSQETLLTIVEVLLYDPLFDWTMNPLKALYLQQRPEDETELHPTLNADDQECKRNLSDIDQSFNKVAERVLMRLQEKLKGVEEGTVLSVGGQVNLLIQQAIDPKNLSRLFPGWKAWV

Turning to `C[C@@H]1CN(c2nnc3cnc4ccc(-c5ccc(OCCCN(C)C)cc5)cc4n23)C[C@H](C)N1C` [Example 23, N,N-dimethyl-3-(4-(1-((3S,5R)-3,4,5-trimethylpiperazin-1-yl)-[1,2,4]triazolo[4,3-a]quinoxalin-8-yl)phenoxy)propan-1-amine], in assay [1], the IC50 (commonly the concentration at which inhibition is half-maximal) was found to be 65.1 nM. In addition, the “inhibitory effect on the growth of SW620 cells (in words)” value in assay [1] (MTT assay, combined with CPT-11) is “inhibited the growth of SW620 cell”. In assay [2], this compound had an IC50 of 54.1 nM. For the same compound, the “inhibitory effect on the growth of MDA-MB-468 cells (in words)” value in assay [2] (MTT assay) is “inhibited the growth of MDA-MB-468 cell”. Further, the inhibition at 0.001 µM in assay [3] (C 0.001 μm (final concentration of compound)) is 60%. Further, in assay [3], the inhibition at 0.01 µM was found to be 81%, the inhibition at 0.1 µM came out at 99% and the inhibition at 1 µM came to 100%.

For `CN(C)CCCOc1ccc(-c2ccc3ncc4nnc(CN5CCOCC5)n4c3c2)cc1` [Example 27, N,N-dimethyl-3-(4-(1-(morpholinomethyl)-[1,2,4]triazolo[4,3-a]quinoxalin-8-yl)phenoxy)propan-1-amine], the IC50 in assay [1] stood at 470 nM. This compound displayed an IC50 in assay [2] of 452 nM. In assay [3], the inhibition at 0.01 µM came out at 43%, the inhibition at 0.1 µM is 84% and the inhibition at 1 µM was determined as 99%.

For the compound `CN(C)CCCOc1ccc(-c2ccc3ncc4nnc(-c5c[nH]cn5)n4c3c2)cc1` [Example 29, N,N-dimethyl-3-(4-(1-(1H-imidazol-4-yl)-[1,2,4]triazolo[4,3-a]quinoxalin-8-yl)phenoxy)propan-1-amine], the 50% inhibitory concentration (IC50) in assay [1] is 1210 nM. In assay [2], this compound came in with an IC50 of 860 nM. For the same compound, in assay [3], the inhibition at 0.01 µM is 34%, the inhibition at 0.1 µM turned out to be 81% and the inhibition at 1 µM was 97%.

With `CN(C)CCCOc1ccc(-c2cc3c(cn2)ncc2nnc(C4CCOCC4)n23)cc1` [Example 30, N,N-dimethyl-3-(4-(1-(tetrahydro-2H-pyran-4-yl)pyrido[3,4-e][1,2,4]triazolo[4,3-a]pyrazin-8-yl)phenoxy)propan-1-amine], the IC50 in assay [1] and in assay [2] was above 10000 nM throughout. The inhibition at 1 µM in assay [3] was determined as 14%.

Turning to `CN(C)CCCOc1ccc(-c2ccc3ncc4nnc(C5CCOCC5)n4c3n2)cc1` [Example 31, N,N-dimethyl-3-(4-(9-(tetrahydro-2H-pyran-4-yl)pyrido[3,2-e][1,2,4]triazolo[4,3-a]pyrazin-2-yl)phenoxy)propan-1-amine], the IC50 in assay [1] stood at 262 nM. In addition, the concentration for half-maximal inhibition (IC50) in assay [2] was 335 nM. Also, in assay [3], the inhibition at 0.01 µM came to 51%, the inhibition at 0.1 µM worked out at 92% and the inhibition at 1 µM was found to be 100%.

`CN(C)CCCOc1ccc(-c2ccc3ncc4cnc(C5CCOCC5)n4c3c2)cc1` [Example 37, N,N-dimethyl-3-(4-(1-(tetrahydro-2H-pyran-4-yl)imidazo[1,5-a]quinoxalin-8-yl)phenoxy)propan-1-amine]: the IC50 was 4250 nM in assay [1] and 4710 nM in assay [2]. For the same compound, the inhibition at 1 µM in assay [3] is 18%.

Turning to `CN(C)C1CCN(c2ccc(-c3ccc4ncc5nnc(C6CCOCC6)n5c4c3)cc2F)CC1` [Example 44, 1-(2-fluoro-4-(1-(tetrahydro-2H-pyran-4-yl)-[1,2,4]triazolo[4,3-a]quinoxalin-8-yl)phenyl)-N,N-dimethylpiperidin-4-amine], the half-maximal inhibitory concentration (IC50) in assay [1] is 152 nM. In assay [2], it took 183 nM to reach half-maximal inhibition (IC50). Further, in assay [3], the inhibition at 0.01 µM came out at 67%, the inhibition at 0.1 µM came out at 94% and the inhibition at 1 µM was 100%.

For `CN(C)C1CCN(c2ccc(-c3ccc4ncc5nnc(C6CCOCC6)n5c4c3)cc2Cl)CC1` [Example 45, 1-(2-chloro-4-(1-(tetrahydro-2H-pyran-4-yl)-[1,2,4]triazolo[4,3-a]quinoxalin-8-yl)phenyl)-N,N-dimethylpiperidin-4-amine], in assay [1], the half-inhibitory concentration (IC50) was 170 nM. Moreover, the IC50 in assay [2] came to 106 nM. Besides, in assay [3], the inhibition at 0.01 µM was found to be 67%, the inhibition at 0.1 µM came out at 94% and the inhibition at 1 µM is 100%.

For `Cc1cc(-c2ccc3ncc4nnc(C5CCOCC5)n4c3c2)ccc1N1CCC(N(C)C)CC1` [Example 46, N,N-dimethyl-1-(2-methyl-4-(1-(tetrahydro-2H-pyran-4-yl)-[1,2,4]triazolo[4,3-a]quinoxalin-8-yl)phenyl)piperidin-4-amine], the figures for the IC50 in assay [1] and in assay [2] were 612 nM and 930 nM, respectively. For the same compound, the inhibition at 1 µM in assay [3] worked out at 100%.

Consider `CN(C)C1CCN(c2ccc(-c3ccc4ncc5nnc(C6CCOCC6)n5c4c3)cc2C(F)(F)F)CC1` [Example 47, N,N-dimethyl-1-(4-(1-(tetrahydro-2H-pyran-4-yl)-[1,2,4]triazolo[4,3-a]quinoxalin-8-yl)-2-(trifluoromethyl)phenyl)piperidin-4-amine], for which the IC50 in assay [1] came to 128 nM. This compound also had an IC50 in assay [2] of 145 nM. For the same compound, in assay [3], the inhibition at 0.01 µM amounted to 72%, the inhibition at 0.1 µM was determined as 96% and the inhibition at 1 µM amounted to 100%.

Take `CN(C)C1CCN(c2ccc(-c3ccc4ncc5nnc(C6CCOCC6)n5c4c3)c(F)c2)CC1` [Example 48, 1-(3-fluoro-4-(1-(tetrahydro-2H-pyran-4-yl)-[1,2,4]triazolo[4,3-a]quinoxalin-8-yl)phenyl)-N,N-dimethylpiperidin-4-amine]: in assay [1], the IC50 is 184 nM. This compound also yielded an IC50 in assay [2] of 161 nM. In assay [3], the inhibition at 0.01 µM was found to be 62%, the inhibition at 0.1 µM is 93% and the inhibition at 1 µM came to 100%.

With `CN(C)C1CCN(c2ccc(-c3ccc4ncc5nnc(C6CCOCC6)n5c4c3)c(Cl)c2)CC1` [Example 49, 1-(3-chloro-4-(1-(tetrahydro-2H-pyran-4-yl)-[1,2,4]triazolo[4,3-a]quinoxalin-8-yl)phenyl)-N,N-dimethylpiperidin-4-amine], the results for the IC50 in assay [1] and in assay [2] were 1030 nM and 1580 nM, respectively. Moreover, the inhibition at 1 µM in assay [3] is 100%.

As to `Cc1cc(N2CCC(N(C)C)CC2)ccc1-c1ccc2ncc3nnc(C4CCOCC4)n3c2c1` [Example 50, N,N-dimethyl-1-(3-methyl-4-(1-(tetrahydro-2H-pyran-4-yl)-[1,2,4]triazolo[4,3-a]quinoxalin-8-yl)phenyl)piperidin-4-amine], the IC50 is above 10000 nM in assay [1] and above 100000 nM in assay [2]. For the same compound, the inhibition at 1 µM in assay [3] was determined as 80%.

For the compound `CN(C)C1CCN(c2ccc(-c3ccc4ncc5nnc(C6CCOCC6)n5c4c3)c(C(F)(F)F)c2)CC1` [Example 51, N,N-dimethyl-1-(4-(1-(tetrahydro-2H-pyran-4-yl)-[1,2,4]triazolo[4,3-a]quinoxalin-8-yl)-3-(trifluoromethyl)phenyl)piperidin-4-amine], the IC50 was above 10000 nM in assay [1] and 3680 nM in assay [2]. Moreover, the inhibition at 1 µM in assay [3] was determined as 74%.

For the compound `CN(C)C1CCN(c2ccc(-c3ccc4ncc5nnc(C6CCOCC6)n5c4c3)nc2)CC1` [Example 52, N,N-dimethyl-1-(6-(1-(tetrahydro-2H-pyran-4-yl)-[1,2,4]triazolo[4,3-a]quinoxalin-8-yl)pyridin-3-yl)piperidin-4-amine], the IC50 is above 10000 nM in assay [1] and 523 nM in assay [2]. Further, in assay [3], the inhibition at 1 µM amounted to 98%.

As to `CN(C)CC1CCN(c2ccc(-c3ccc4ncc5nnc(C6CCOCC6)n5c4c3)cc2)CC1` [Example 53, N,N-dimethyl-1-(1-(4-(1-(tetrahydro-2H-pyran-4-yl)-[1,2,4]triazolo[4,3-a]quinoxalin-8-yl)phenyl)piperidin-4-yl)methanamine], the IC50 in assay [1] and in assay [2] was above 100000 nM throughout. In addition, the inhibition at 1 µM in assay [3] is 77%.

For `CN(C)CCC1CCN(c2ccc(-c3ccc4ncc5nnc(C6CCOCC6)n5c4c3)cc2)CC1` [Example 54, N,N-dimethyl-2-(1-(4-(1-(tetrahydro-2H-pyran-4-yl)-[1,2,4]triazolo[4,3-a]quinoxalin-8-yl)phenyl)piperidin-4-yl)ethan-1-amine], the IC50 in assay [1] and in assay [2] was above 100000 nM throughout. The inhibition at 1 µM in assay [3] is 82%.
